Measurements reported in PubChem BioAssay AID1963866 (Molecular Pharmacology Branch, DTP, NCI, 2024).

Test system: PDC KRAS tumor spheroids with HUVEC/MSC, viability
Test: Anticancer human tumor 349418-098-R-PDC patient-derived lung adenocarcinoma cell line growth inhibition [KRAS2]
Conditions: for viability, T/C: stronger effect = lower value
How it was run: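 Combination screen of spheroid viability in tumor-cell co-cultures with endothelial (HUVEC) and mesenchymal stem cell stroma. Each agent was tested in half-log dilutions, topping at clinical Cmax or at 10 microM without a known Cmax.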

[1] = curve of first compound, second compound 0.1 µM
[2] = curve of first compound, second compound 0.316 µM
[3] = curve of first compound, second compound 1 µM
[4] = curve of first compound, second compound 3.16 µM
[5] = second compound 0.1 µM, first compound 0.0316 µM
[6] = second compound 0.1 µM, first compound 0.1 µM
[7] = second compound 0.1 µM, first compound 0.316 µM
[8] = second compound 0.1 µM, first compound 1 µM
[9] = second compound 0.1 µM, first compound 3.16 µM
[10] = second compound 0.1 µM, first compound 10 µM
[11] = second compound 0.316 µM, first compound 0.0316 µM
[12] = second compound 0.316 µM, first compound 0.1 µM
[13] = second compound 0.316 µM, first compound 0.316 µM
[14] = second compound 0.316 µM, first compound 1 µM
[15] = second compound 0.316 µM, first compound 3.16 µM
[16] = second compound 0.316 µM, first compound 10 µM
[17] = second compound 1 µM, first compound 0.0316 µM
[18] = second compound 1 µM, first compound 0.1 µM
[19] = second compound 1 µM, first compound 0.316 µM
[20] = second compound 1 µM, first compound 1 µM
[21] = second compound 1 µM, first compound 3.16 µM
[22] = second compound 1 µM, first compound 10 µM
[23] = second compound 3.16 µM, first compound 0.0316 µM
[24] = second compound 3.16 µM, first compound 0.1 µM
[25] = second compound 3.16 µM, first compound 0.316 µM
[26] = second compound 3.16 µM, first compound 1 µM
[27] = second compound 3.16 µM, first compound 3.16 µM
[28] = second compound 3.16 µM, first compound 10 µM
[29] = curve of first compound, second compound 10 µM
[30] = second compound 10 µM, first compound 0.0316 µM
[31] = second compound 10 µM, first compound 0.1 µM
[32] = second compound 10 µM, first compound 0.316 µM
[33] = second compound 10 µM, first compound 1 µM
[34] = second compound 10 µM, first compound 3.16 µM
[35] = second compound 0.1 µM, first compound 0.01 µM
[36] = second compound 0.316 µM, first compound 0.01 µM
[37] = second compound 1 µM, first compound 0.01 µM
[38] = second compound 3.16 µM, first compound 0.01 µM
[39] = second compound 10 µM, first compound 0.01 µM
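Also: spheroids exposed to compounds for seven days before readout.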

How did the IC50 (curve of first compound, second compound 0.0316 µM) turn out when `COc1cc(Nc2ncc3c(n2)-c2ccc(Cl)cc2C(c2c(F)cccc2OC)=NC3)ccc1C(=O)O` + C=CC(=O)N1CCN(c2nc(OCC3CCCN3C)nc3c2CCN(c2cccc4cccc(C)c24)C3)CC1CC#N was run?
The IC50 was 41 nM.

What about the IC50 [1] of the same molecule?
Its IC50 is 55.2 nM.

What about the IC50 [2] of the same molecule?
Its IC50 is under 31.6 nM.

What about the IC50 [3] of the same molecule?
The IC50 was under 31.6 nM.

And the IC50 [4]?
Its IC50 is under 31.6 nM.

What about the viability, T/C (second compound 0.0316 µM, first compound 0.0316 µM) of the same molecule?
Its viability, T/C is 55.8%.

And the viability, T/C (second compound 0.0316 µM, first compound 0.1 µM)?
The viability, T/C was 29.1%.

What about the viability, T/C (second compound 0.0316 µM, first compound 0.316 µM) of the same molecule?
Its viability, T/C is 33.7%.

And the viability, T/C (second compound 0.0316 µM, first compound 1 µM)?
Its viability, T/C is 28.3%.

What about the viability, T/C (second compound 0.0316 µM, first compound 3.16 µM) of the same molecule?
The viability, T/C was 28.1%.

What about the viability, T/C (second compound 0.0316 µM, first compound 10 µM) of the same molecule?
The viability, T/C was 21.2%.

And the viability, T/C [5]?
Its viability, T/C is 60.8%.

What about the viability, T/C [6] of the same molecule?
Its viability, T/C is 36.3%.

What about the viability, T/C [7] of the same molecule?
The viability, T/C was 36.3%.

What about the viability, T/C [8] of the same molecule?
Its viability, T/C is 26.1%.

What about the viability, T/C [9] of the same molecule?
Its viability, T/C is 28.2%.

What about the viability, T/C [10] of the same molecule?
The viability, T/C was 25.4%.

And the viability, T/C [11]?
Its viability, T/C is 49.7%.

And the viability, T/C [12]?
Its viability, T/C is 20.5%.

And the viability, T/C [13]?
The viability, T/C was 27.8%.

What about the viability, T/C [14] of the same molecule?
Its viability, T/C is 31.9%.

What about the viability, T/C [15] of the same molecule?
The viability, T/C was 20.2%.

What about the viability, T/C [16] of the same molecule?
The viability, T/C was 19.4%.

And the viability, T/C [17]?
The viability, T/C was 24%.

And the viability, T/C [18]?
Its viability, T/C is 24%.

And the viability, T/C [19]?
The viability, T/C was 21.8%.

And the viability, T/C [20]?
The viability, T/C was 19.7%.

And the viability, T/C [21]?
The viability, T/C was 16.2%.

And the viability, T/C [22]?
The viability, T/C was 17%.

What about the viability, T/C [23] of the same molecule?
The viability, T/C was 0.09%.

And the viability, T/C [24]?
The viability, T/C was 0.09%.

What about the viability, T/C [25] of the same molecule?
The viability, T/C was 0.11%.

And the viability, T/C [26]?
Its viability, T/C is 0.08%.

What about the viability, T/C [27] of the same molecule?
Its viability, T/C is 0.49%.

What about the viability, T/C [28] of the same molecule?
The viability, T/C was 0.12%.

`CC(C)NCC(C(=O)N1CCN(c2ncnc3c2C(C)CC3O)CC1)c1ccc(Cl)cc1` (stereo not drawn) + CC1OCC2(CCN(c3cnc(Sc4ccnc(N)c4Cl)c(N)n3)CC2)C1N was tested. Which IC50 [1] did it give?
The IC50 was 270 nM.

What about the IC50 [2] of the same molecule?
Its IC50 is 271 nM.

And the IC50 [3]?
Its IC50 is 472 nM.

And the IC50 [4]?
Its IC50 is 358 nM.

What about the IC50 [29] of the same molecule?
The IC50 was 401 nM.

And the viability, T/C [5]?
Its viability, T/C is 98.9%.

And the viability, T/C [6]?
Its viability, T/C is 78.6%.

What about the viability, T/C [7] of the same molecule?
The viability, T/C was 42.5%.

What about the viability, T/C [8] of the same molecule?
Its viability, T/C is 25.8%.

And the viability, T/C [9]?
Its viability, T/C is 13.9%.

What about the viability, T/C [10] of the same molecule?
Its viability, T/C is 7.23%.

And the viability, T/C [11]?
The viability, T/C was 100%.

What about the viability, T/C [12] of the same molecule?
Its viability, T/C is 77.7%.

And the viability, T/C [13]?
Its viability, T/C is 43%.

And the viability, T/C [14]?
Its viability, T/C is 25.9%.

What about the viability, T/C [15] of the same molecule?
The viability, T/C was 14.5%.

And the viability, T/C [16]?
Its viability, T/C is 6.51%.

What about the viability, T/C [17] of the same molecule?
The viability, T/C was 98.2%.

And the viability, T/C [18]?
Its viability, T/C is 85.1%.

What about the viability, T/C [19] of the same molecule?
Its viability, T/C is 61.7%.

What about the viability, T/C [20] of the same molecule?
The viability, T/C was 28.7%.

What about the viability, T/C [21] of the same molecule?
Its viability, T/C is 17.4%.

And the viability, T/C [22]?
Its viability, T/C is 7.82%.

And the viability, T/C [23]?
Its viability, T/C is 92.8%.

What about the viability, T/C [24] of the same molecule?
Its viability, T/C is 80.4%.

What about the viability, T/C [25] of the same molecule?
The viability, T/C was 51.8%.

What about the viability, T/C [26] of the same molecule?
Its viability, T/C is 26.4%.

What about the viability, T/C [27] of the same molecule?
Its viability, T/C is 19.8%.

What about the viability, T/C [28] of the same molecule?
Its viability, T/C is 7.52%.

What about the viability, T/C [30] of the same molecule?
The viability, T/C was 87.1%.

And the viability, T/C [31]?
Its viability, T/C is 83.6%.

And the viability, T/C [32]?
Its viability, T/C is 51.5%.

What about the viability, T/C [33] of the same molecule?
The viability, T/C was 31%.

What about the viability, T/C [34] of the same molecule?
The viability, T/C was 15.3%.

What about the viability, T/C (second compound 10 µM, first compound 10 µM) of the same molecule?
The viability, T/C was 7.92%.

Which results are given for `CC1COCCN1c1cc(-c2ccnn2C)c2ccnc(-c3ccn[nH]3)c2n1` (stereo not drawn) + C=CC(=O)N1CCN(c2nc(=O)n(-c3c(C)ccnc3C(C)C)c3nc(-c4c(O)cccc4F)c(F)cc23)C(C)C1?
IC50 [1]: 27.4 nM; IC50 [2]: 26.4 nM; IC50 [3]: 27.1 nM; IC50 [4]: 15.4 nM; IC50 [29]: < 10 nM; viability, T/C [35]: 76.3%; viability, T/C [5]: 46.3%; viability, T/C [6]: 9.21%; viability, T/C [7]: 6.2%; viability, T/C [8]: 4.48%; viability, T/C [9]: 4.43%; viability, T/C [36]: 117%; viability, T/C [11]: 37.7%; viability, T/C [12]: 8.7%; viability, T/C [13]: 4.96%; viability, T/C [14]: 4.36%; viability, T/C [15]: 4.34%; viability, T/C [37]: 101%; viability, T/C [17]: 42%; viability, T/C [18]: 7.61%; viability, T/C [19]: 5.66%; viability, T/C [20]: 4.24%; viability, T/C [21]: 4.16%; viability, T/C [38]: 69%; viability, T/C [23]: 18.1%; viability, T/C [24]: 6.37%; viability, T/C [25]: 4.8%; viability, T/C [26]: 4.05%; viability, T/C [27]: 4.49%; viability, T/C [39]: 21.2%; viability, T/C [30]: 5.73%; viability, T/C [31]: 4.31%; viability, T/C [32]: 4.56%; viability, T/C [33]: 4.61%; viability, T/C [34]: 4.96%

With `C=CC(=O)N1CCN(c2nc(=O)n(-c3c(C)ccnc3C(C)C)c3nc(-c4c(O)cccc4F)c(F)cc23)C(C)C1` (stereo not drawn) as the molecule, how does the viability, T/C (compound 10 µM) read?
Its viability, T/C is 37.2% [middle of 17 runs].

What about the IC50 (compound alone, run of 07/19/2021) of the same molecule?
The IC50 was 5.54 µM [middle of 5 runs].

And the IC50 (compound alone, run of 07/26/2021)?
The IC50 was 6.3 µM [middle of 6 runs].

Which results are given for `CCN1CCN(Cc2ccc(Nc3ncc(F)c(-c4cc(F)c5nc(C)n(C(C)C)c5c4)n3)nc2)CC1` + C=CC(=O)N1CCN(c2nc(=O)n(-c3c(C)ccnc3C(C)C)c3nc(-c4c(O)cccc4F)c(F)cc23)C(C)C1?
IC50 [1]: 6.77 nM; IC50 [2]: 7.65 nM; IC50 [3]: 7.4 nM; IC50 [4]: 4.46 nM; IC50 [29]: < 3.16 nM; viability, T/C (second compound 0.1 µM, first compound 0.00316 µM): 71.8%; viability, T/C [35]: 37.4%; viability, T/C [5]: 21.8%; viability, T/C [6]: 18%; viability, T/C [7]: 15.4%; viability, T/C [8]: 4.22%; viability, T/C (second compound 0.316 µM, first compound 0.00316 µM): 76.3%; viability, T/C [36]: 41.9%; viability, T/C [11]: 20.9%; viability, T/C [12]: 19.5%; viability, T/C [13]: 14.6%; viability, T/C [14]: 4.52%; viability, T/C (second compound 1 µM, first compound 0.00316 µM): 75.9%; viability, T/C [37]: 40.6%; viability, T/C [17]: 21.7%; viability, T/C [18]: 15%; viability, T/C [19]: 15.7%; viability, T/C [20]: 2.9%; viability, T/C (second compound 3.16 µM, first compound 0.00316 µM): 55.4%; viability, T/C [38]: 39.6%; viability, T/C [23]: 18.5%; viability, T/C [24]: 18.4%; viability, T/C [25]: 16.6%; viability, T/C [26]: 2.48%; viability, T/C (second compound 10 µM, first compound 0.00316 µM): 25.3%; viability, T/C [39]: 14.2%; viability, T/C [30]: 12.8%; viability, T/C [31]: 8.96%; viability, T/C [32]: 8.17%; viability, T/C [33]: 0.93%
